What all share (type): nucleic-acid assay
Common to all, as to conditions: Escherichia coli

The subject of assay [1] is Nucleic Acid. Kind of assay: Induction of supercoiled pBR322 DNA cleavage at PH 7.2 after 16 hrs at 37 degC in absence of triethylamine.
Assay [2] deals with Nucleic Acid. The assay is described as follows: Induction of supercoiled pBR322 DNA cleavage at PH 7.2 after 8 hrs at 37 degC in absence of triethylamine.
Assay [3] relates to Nucleic Acid. Kind of assay: Induction of supercoiled pBR322 DNA cleavage at PH 7.2 after 16 hrs at 37 degC in presence of triethylamine.
Assay [4] has as its system Nucleic Acid. Kind of assay: Induction of supercoiled pBR322 DNA cleavage at PH 7.2 after 8 hrs at 37 degC in presence of triethylamine.

Calls of active or inactive are those of the source. No cut-off for these calls is given here.

Consider `O=S(=O)(C=C=Cc1ccccc1C#Cc1ccccc1C#CCS(=O)(=O)c1ccccc1)c1ccccc1`, for which the outcome in the assay with Nucleic Acid [1] and with Nucleic Acid [2] was Active.
In the case of `O=S(=O)(CC#Cc1ccccc1C#Cc1ccccc1C#CCS(=O)(=O)c1ccccc1)c1ccccc1`, the Activity with Nucleic Acid [3] and in the assay with Nucleic Acid [4] was 45% in each case.
Consider `O=S(=O)(CC#Cc1ccccc1C#CC#Cc1ccccc1C#CCS(=O)(=O)c1ccccc1)c1ccccc1`, for which the Activity turned out to be 62% in the assay with Nucleic Acid [3] and 47% in the assay with Nucleic Acid [4].
`O=S(=O)(C=C=Cc1ccccc1C#CC#Cc1ccccc1C#CCS(=O)(=O)c1ccccc1)c1ccccc1`: the outcome in the assay with Nucleic Acid [1] and in the assay on Nucleic Acid [2] was Active.

The record behind these values is ChEMBL document CHEMBL1151883, “Design and synthesis of bisenediyne bissulfones and their reactivity under basic condition” (Bioorg Med Chem Lett, 2009).
